# Measurements reported in patent US8592422B2, “Bicyclic triazole and pyrazole lactams as allosteric modulators of mGluR5 receptors” (Vanderbilt University, priority 2010, dated 2013).
# Where two headings read alike, the source gives them in different places.
# Columns and labels:
# [1] = molecular target: T1, human mGluR5a receptor (Homo sapiens, UniProt P41594); assay: Cell-based functional Ca2+ mobilization assay (FDSS), potentiation of glutamate EC20 response; settings: for EC50 / pEC50: HEK cells transfected with human mGluR5 (H10H or H12H), in presence of EC20 glutamate; for Emax / Emax (%): maximum % effect in concentration-response curve, as percent of response to maximally effective glutamate
# T1 construct: cDNA subcloned into pcDNA3.1(-)
# T1 sequence (P41594 21-1180 isoform P41594-2 limits assumed): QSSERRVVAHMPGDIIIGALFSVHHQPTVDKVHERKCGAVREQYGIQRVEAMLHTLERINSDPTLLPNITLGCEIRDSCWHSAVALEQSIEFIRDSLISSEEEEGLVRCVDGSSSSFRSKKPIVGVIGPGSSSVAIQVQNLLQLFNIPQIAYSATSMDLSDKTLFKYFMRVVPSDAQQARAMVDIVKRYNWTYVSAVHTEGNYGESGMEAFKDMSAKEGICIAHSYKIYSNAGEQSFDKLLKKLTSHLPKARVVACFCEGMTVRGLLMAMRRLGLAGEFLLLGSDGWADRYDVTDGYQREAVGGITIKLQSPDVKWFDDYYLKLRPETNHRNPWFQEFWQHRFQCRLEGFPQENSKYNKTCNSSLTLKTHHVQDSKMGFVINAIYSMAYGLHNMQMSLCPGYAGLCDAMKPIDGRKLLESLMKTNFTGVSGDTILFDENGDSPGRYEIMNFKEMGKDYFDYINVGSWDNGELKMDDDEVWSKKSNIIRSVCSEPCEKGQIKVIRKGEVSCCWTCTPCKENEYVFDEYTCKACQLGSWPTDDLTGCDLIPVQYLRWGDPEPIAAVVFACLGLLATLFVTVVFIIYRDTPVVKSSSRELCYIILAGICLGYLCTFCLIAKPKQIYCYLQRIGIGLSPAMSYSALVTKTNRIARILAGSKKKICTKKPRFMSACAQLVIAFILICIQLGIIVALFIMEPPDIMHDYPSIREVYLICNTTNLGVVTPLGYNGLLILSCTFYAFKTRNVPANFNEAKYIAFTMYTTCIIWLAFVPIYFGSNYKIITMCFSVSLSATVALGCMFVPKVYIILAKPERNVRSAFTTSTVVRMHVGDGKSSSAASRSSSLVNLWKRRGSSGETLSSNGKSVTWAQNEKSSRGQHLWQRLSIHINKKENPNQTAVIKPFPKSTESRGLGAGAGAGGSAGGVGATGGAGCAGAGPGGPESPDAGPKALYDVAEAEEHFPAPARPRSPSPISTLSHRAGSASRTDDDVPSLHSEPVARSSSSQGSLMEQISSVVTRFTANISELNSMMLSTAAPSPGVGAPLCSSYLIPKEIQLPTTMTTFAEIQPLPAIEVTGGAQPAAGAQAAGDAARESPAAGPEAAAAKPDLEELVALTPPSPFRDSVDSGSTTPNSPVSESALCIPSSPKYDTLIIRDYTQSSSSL
# Procedure, shortened: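 HEK293A cells stably expressing human mGluR5a (H10H or H12H clones), plated overnight in glutamate-glutamine-free medium, loaded with Ca2+-sensitive dye (e.g. Fluo-4) and read on FDSS.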
EC50 ([1]; read-out: EC50) [nM],Emax [1] [%],melting point [°C],EC50 ([1]; read-out: pEC50 (converted)) [nM],pEC50 [1],Emax (%) [1] [%],Compound,EC50 ([1]; EC50 (nM)) [nM]
71,68,99.5,–,–,–,CC1CN(c2ccc(F)cc2)C(=O)c2cc(COc3ccccc3)nn21 (racemic) [Example 19],–
141,69,164.2,–,–,–,CC1CN(c2ccc(F)cc2)C(=O)c2cc(COc3ccc(F)cc3)nn21 (racemic) [Example 234],–
170,64,128.1,–,–,–,CC1CN(c2cccc(F)c2)C(=O)c2cc(COc3ccc(F)cc3)nn21 (racemic) [Example 235],–
151,64,123.5,–,–,–,Cc1nc(N2CC(C)n3nc(COc4ccc(F)cc4)cc3C2=O)ccc1F (racemic) [Example 236],–
98,80,> 300,–,–,–,O=C1c2cc(COc3ccccc3)nn2CCN1c1ccc(F)c(F)c1 [Example 7],–
162,84,129.7,–,–,–,Cc1cccc(N2CCn3nc(COc4ccccc4)cc3C2=O)n1 [Example 10],–
1480,72,271.3,–,–,–,O=C1c2cc(COc3ccccc3)nn2CCN1c1ccncc1 [Example 14],–
490,72,131.3,–,–,–,Cc1ccnc(N2CCn3nc(COc4ccccc4)cc3C2=O)c1 [Example 17],–
1200,74,155.3,–,–,–,Cc1cncc(N2CCn3nc(COc4ccccc4)cc3C2=O)c1 [Example 22],–
1200,81,> 300,–,–,–,Cc1ccc(N2CCn3nc(COc4ccccc4)cc3C2=O)cn1 [Example 23],–
2820,78,132.1,1660,–,–,O=C1c2cc(COc3ccccc3)nn2CCN1CC(F)(F)F [Example 24],–
1860,53,> 300,–,–,–,CC(C)N1CCn2nc(COc3ccccc3)cc2C1=O [Example 25],–
92,80,> 300,–,–,–,O=C1c2cc(COc3ccccc3)nn2CCN1CC1CCC1 [Example 27],–
174,60,180.2,–,–,–,O=C1c2cc(COc3ccccc3)nn2CCN1CC1CC1(F)F (centres unmarked) [Example 28],–
> 10000,58,240,–,–,–,O=C1c2cc(COc3ccccc3)nn2CCN1c1cncnc1 [Example 31],–
> 10000,67,283.4,–,–,–,Cc1ncc(N2CCn3nc(COc4ccccc4)cc3C2=O)cn1 [Example 33],–
93,65,145.8,–,–,–,COc1ccccc1N1CCn2nc(COc3ccccc3)cc2C1=O [Example 47],–
130,57,115.8,–,–,–,CCOc1cccc(N2CCn3nc(COc4ccccc4)cc3C2=O)c1 [Example 59],–
363,74,76.7,–,–,–,CC(C)CCc1cccc(N2CCn3nc(COc4ccccc4)cc3C2=O)n1 [Example 65],–
324,68,127.5,–,–,–,O=C1c2cc(COc3ccccc3)nn2CCN1c1ncccc1Cl [Example 68],–
91,72,134.7,–,–,–,Cc1cc(N2CCn3nc(COc4ccccc4)cc3C2=O)ncc1F [Example 72],–
66,69,111.3,–,–,–,O=C1c2cc(COc3ccccc3)nn2CCN1c1cccc(CF)n1 [Example 76],–
490,69,144.5,–,–,–,COc1ccnc(N2CCn3nc(COc4ccccc4)cc3C2=O)n1 [Example 78],–
1290,71,148.9,–,–,–,O=C1c2cc(COc3ccccc3)nn2CCN1c1ccncn1 [Example 80],–
891,65,143.7,–,–,–,Cc1cc(N2CCn3nc(COc4ccccc4)cc3C2=O)ncn1 [Example 83],–
> 10000,53,166.7,–,–,–,Cc1ccc(N2CCn3nc(COc4ccccc4)cc3C2=O)nn1 [Example 84],–
813,56,239.3,–,–,–,O=C1c2cc(COc3ccccc3)nn2CCN1c1cnccn1 [Example 87],–
575,67,177.1,–,–,–,Cc1nc(N2CCn3nc(COc4ccccc4)cc3C2=O)ncc1F [Example 90],–

EC50 ([1]; read-out: EC50) [nM],Emax [1] [%],melting point [°C],EC50 ([1]; read-out: pEC50 (converted)) [nM],pEC50 [1],Emax (%) [1] [%],Compound,EC50 ([1]; EC50 (nM)) [nM]
646,67,183.7,–,–,–,COc1cc(C)nc(N2CCn3nc(COc4ccccc4)cc3C2=O)n1 [Example 99],–
955,67,235.5,–,–,–,Cc1cnc(N2CCn3nc(COc4ccccc4)cc3C2=O)cn1 [Example 100],–
120,69,158.1,–,–,–,COc1nc(N2CCn3nc(COc4ccccc4)cc3C2=O)cnc1C [Example 102],–
54,67,140.9,–,–,–,COc1cc(C)cc(N2CCn3nc(COc4ccccc4)cc3C2=O)n1 [Example 104],–
219,53,131.9,–,–,–,COc1cc(N2CCn3nc(COc4ccccc4)cc3C2=O)nc(C)n1 [Example 105],–
347,63,169.6,–,–,–,COc1cnc(N2CCn3nc(COc4ccccc4)cc3C2=O)nc1OC [Example 107],–
–,64,145.3,17.8,–,–,COc1nc(N2CCn3nc(COc4ccccc4)cc3C2=O)ccc1C [Example 108],–
93,68,101.8,–,–,–,CC(C)c1cccc(N2CCn3nc(COc4ccccc4)cc3C2=O)n1 [Example 111],–
100,68,136.3,–,–,–,COc1ccc(N2CCn3nc(COc4ccccc4)cc3C2=O)c(C)n1 [Example 114],–
310,62,> 300,–,–,–,Cc1ccc(N2CCn3nc(COc4ccccc4)cc3C2=O)c(C)n1 [Example 116],–
750,67,141.7,–,–,–,Cc1cnc(C)c(N2CCn3nc(COc4ccccc4)cc3C2=O)n1 [Example 120],–
63,70,87.4,–,–,–,Cc1nc(N2CC(C)n3nc(COc4ccccc4)cc3C2=O)ccc1F (centres unmarked) [Example 134],–
240,66,64.6,–,–,–,C[C@@H]1Cn2nc(COc3ccccc3)cc2C(=O)N1CC1CC1 [Example 137],–
316,59,93.3,–,–,–,Cc1nc(N2C(=O)c3cc(COc4ccccc4)nn3C[C@@H]2C)ccc1F [Example 138],–
170,68,156,–,–,–,Cc1nc(N2C(=O)c3cc(COc4ccccc4)nn3C[C@H]2C)ccc1F [Example 140],–
195,66,71.9,–,–,–,C[C@@H]1Cn2nc(COc3ccccc3)cc2C(=O)N1c1ccc(F)cn1 [Example 141],–
81,62,135.8,–,–,–,COc1cc(N2C(=O)c3cc(COc4ccccc4)nn3C[C@H]2C)ccc1F [Example 143],–
–,70,94.6,32.4,–,–,Cc1cc(N2C(=O)c3cc(COc4ccccc4)nn3C[C@H]2C)ccc1F [Example 144],–
174,71,145.5,–,–,–,COc1ncccc1N1C(=O)c2cc(COc3ccccc3)nn2C[C@H]1C [Example 148],–
794,64,104.9,–,–,–,COc1nccnc1N1C(=O)c2cc(COc3ccccc3)nn2C[C@H]1C [Example 149],–
29,72,171.5,29.5,–,–,Cc1ccccc1N1C(=O)c2cc(COc3ccccc3)nn2C[C@H]1C [Example 154],–
130,62,99.3,–,–,–,Cc1cc(N2C(=O)c3cc(COc4ccccc4)nn3C[C@H]2C)ncc1F [Example 155],–
540,79,> 300,–,–,–,COc1nc(N2C(=O)c3cc(COc4ccccc4)nn3C[C@H]2C)ncc1C [Example 156],–
631,68,149.5,–,–,–,O=C1c2cc(COc3ccncc3)nn2CCN1c1ccc(F)cc1 [Example 160],–
95,64,182.5,–,–,–,Cc1cccc(OCc2cc3n(n2)CCN(c2ccc(F)cc2)C3=O)c1 [Example 166],–
> 10000,–,–,–,<5.00,71,O=C1c2cc(COc3ccccc3O)nn2CCN1c1ccc(F)cn1 [Example 377],–
> 30200,–,–,–,<4.52,29,O=c1[nH]ccn2nc(COc3ccccc3)cc12 [Example 378],–

Compound,EC50 ([1]; read-out: EC50) [nM],Emax [1] [%],melting point [°C],EC50 ([1]; read-out: pEC50 (converted)) [nM],pEC50 [1],Emax (%) [1] [%],EC50 ([1]; EC50 (nM)) [nM]
O=C1c2cc(COc3ccccc3)nn2CCN1c1cccc(F)c1 [Example 8],–,81,155,–,–,–,132
O=C1c2cc(COc3ccccc3)nn2CCN1c1ccccc1F [Example 9],–,82,154.7,–,–,–,162
O=C1c2cc(COc3ccccc3)nn2CCN1c1ncc(F)cn1 [Example 126],–,71,161.3,–,–,–,780
